Experimental data taken from patent publication US20240174625A1, “COMPOSITIONS AND METHODS FOR TREATING TAUOPATHIES” (The Regents of the University of California, priority 2021, published 2024).

Columns and labels:
NPEPPS = biological target: T1, NPEPPS (Homo sapiens, UniProt P55786); assay: Cell-based NPEPPS activity assay (Q-AMC fluorescence); conditions: for EC50: log10 transformed, EC50 = concentration that elevates 50% NPEPPS activity (150% of DMSO baseline), HEK293T cells; for fluorescence change (NPEPPS activity): Q-AMC assay, inhibitors, FIG. 2D
T1 construct: endogenous in cells; host or cells: HEK293T
Description: HEK293T cells (AATC) were maintained in a complete media containing DMEM (Gibco 11995-065) in the presence of 10% fetal bovine serum (FBS, Gibco 10082147), […] penicillin and 50 μg/ml streptomycin (Gibco 15140163) at 37° C. with 5% CO2. NPEPPS activity assay was conducted in a fresh-prepared minimal medium containing essential amino acids, vitamin, AlbuMax (Invitrogen 11021-029) in 1×HBS buffer. Black wall, clear bottom 384-well assay plates (Greiner EK-30092) were coated with poly-L-ornithine (0.1 mg/ml, Sigma P3655) overnight and washed once with 1×PBS. 15 μl minimal medium was then added to each well. 250 nL of compounds dissolved in OmniSolve methylsulfoxide (dimethyl sulfoxide, DMSO, Sigma MX1456P) were pinned to each well via Biomek FX^P Liquid Handling Automation (Beckman Coulter) from compound source plates, i.e., either pre-made compound libraries or JMM compounds (20-step, 2-fold dilution) dissolved in OmniSolve DMSO prepared via Biomek automation in 384-well clear V-bottom polypropylene microplates (ThermoScientific 50-823-639). Cells were harvested, resuspended in minimal medium, and seeded at 16,500 cells/15 μl/well in the 384-well assay plates. 24 hrs later, 30 μl 200 μM H-Gln-AMC hydrobromide salt (Q-AMC, Bachem #I-1175) in 1×HBS containing 0.1% DMSO was added into each well. The fluorescent signal at excitation/emission wavelengths of 360/460 nm was measured immediately upon Q-AMC addition and 3 hrs post-Q-AMC. The change in fluorescence is measured as a readout of NPEPPS activity.
To identify small molecules that either increase NPEPPS levels or NPEPPS activity, a cell-based NPEPPS activity assay amenable to high-throughput screening (HTS) by adapting a fluorescent peptidase activity assay^2 was developed. Since NPEPPS is one of the only aminopeptidases capable of cleaving glutamine-peptide bonds^3 and the major aminopeptidase responsible for degradation of poly-glutamine sequences in the brain^4, a fluorogenic compound, glutamine-7-amino-4-methylcoumarin (Q-AMC), was selected as a substrate to measure NPEPPS activity. The peptide bond of Q-AMC is hydrolyzed by NPEPPS to release glutamine and a fluorescent product, 7-amino-4-methylcoumarin (AMC), when Q-AMC is added directly to the cell culture media. This change in fluorescence is measured as a readout of aminopeptidase activity (FIG. 2A). Overexpression of NPEPPS in HEK293T cells results in a significant increase in fluorescence, whereas knock-down or chemical inhibition of NPEPPS decrease fluorescence change (FIG. 2B-D), validating that the changes in fluorescence observed in the Q-AMC-based assay directly correlate with changes in NPEPPS activity. A high-throughput (HTS) screen (201,845 compounds) was conducted at the UCLA MSSR core (FIG. 2E). Follow-up assays and chemical clustering identified three series of compounds with distinct chemical clusters (FIG. 2F).
(§1) To investigate the effects of JMM compounds that enhance NPEPPS activity and assess their cellular toxicity, 139 compounds in the JMM series (i.e., JMM001-JMM139) were tested in dose responses (20-step, 2-fold dilution) using NPEPPS activity and viability assays in HEK293T cells. 76 compounds harboring different modifications produce concentration-dependent enhancement on NPEPPS activity compared to DMSO control (FIG. 4). […] A therapeutic index (TI, a ratio of IC50 over EC50) is used to evaluate the relative safety profiles of the compounds. […] 16 JMM compounds show both improved potency and reduced toxicity (EC50<10 μM and TI>10, Table 1).

HEK293T cells = assay: Cell viability assay (CellTiter Glo); format: cell-based, human; conditions: for IC50: Homo sapiens, HEK-293T, log10 transformed, IC50 = concentration that suppresses 50% cell viability, HEK293T cells; for Therapeutic index: ratio of IC50 (cell viability) over EC50 (NPEPPS activity)
Description: HEK293T cells (AATC) were maintained in complete media and cell viability assay was conducted in a fresh-prepared minimal medium containing essential amino acids, vitamin, AlbuMax (Invitrogen 11021-029) in 1×HBS buffer. White 384-well assay plates (Greiner EK-30080) were coated with poly-L-ornithine (0.1 mg/ml) overnight and washed once with 1×PBS. 15 μl minimal medium was then added to each well. 250 nl of compounds dissolved in OmniSolve DMSO were pinned to each well via Biomek FX^P Liquid Handling Automation from compound source plates. Cells were harvested, resuspended in minimal medium, and seeded at 16,500 cells/15 μl/well in the 384-well assay plates. 24 hrs later, 25 μl/well CellTiter Glo reagent (Promega G7572) was added into each well, and luminescence (0.5 second integration time) was acquired following manufacture's protocol. Luminescence count normalized to DMSO control is used as a readout of cell viability.
as §1

T1 sequence (P55786 whole entry): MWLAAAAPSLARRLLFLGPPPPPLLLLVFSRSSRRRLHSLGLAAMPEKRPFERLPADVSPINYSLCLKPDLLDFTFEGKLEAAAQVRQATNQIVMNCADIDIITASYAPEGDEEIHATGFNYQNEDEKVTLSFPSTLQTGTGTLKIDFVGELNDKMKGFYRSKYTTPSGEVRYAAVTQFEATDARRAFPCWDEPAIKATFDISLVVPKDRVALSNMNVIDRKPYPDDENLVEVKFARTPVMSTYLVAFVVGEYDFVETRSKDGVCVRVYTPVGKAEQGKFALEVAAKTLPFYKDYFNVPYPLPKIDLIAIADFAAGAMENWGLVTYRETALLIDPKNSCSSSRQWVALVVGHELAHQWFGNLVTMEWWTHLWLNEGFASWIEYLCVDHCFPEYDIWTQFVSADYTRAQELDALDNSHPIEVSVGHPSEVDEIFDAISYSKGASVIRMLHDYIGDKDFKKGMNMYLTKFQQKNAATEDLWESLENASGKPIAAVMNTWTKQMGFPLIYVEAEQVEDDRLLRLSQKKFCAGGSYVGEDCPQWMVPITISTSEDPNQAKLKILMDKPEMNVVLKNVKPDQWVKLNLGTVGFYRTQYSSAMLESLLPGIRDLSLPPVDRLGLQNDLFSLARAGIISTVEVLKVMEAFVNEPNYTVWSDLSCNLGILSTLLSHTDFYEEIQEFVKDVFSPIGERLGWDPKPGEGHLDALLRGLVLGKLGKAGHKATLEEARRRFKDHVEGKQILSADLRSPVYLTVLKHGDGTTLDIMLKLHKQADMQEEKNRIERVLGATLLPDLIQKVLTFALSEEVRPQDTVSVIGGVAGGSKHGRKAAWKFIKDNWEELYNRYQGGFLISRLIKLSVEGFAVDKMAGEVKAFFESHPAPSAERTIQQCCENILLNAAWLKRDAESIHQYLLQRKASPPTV

Row | SMILES | EC50 (NPEPPS) [µM] | IC50 (HEK293T cells) [µM] | Therapeutic index (HEK293T cells) | fluorescence change (NPEPPS activity) (NPEPPS)
1 | FC(F)(F)c1ccc(CNc2nsc3ncccc23)cc1 [JMM059] | 67.6 | 120 | 1.78 | –
2 | FC(F)(F)c1ccc(CNc2nsc3cccnc23)cc1 [JMM060] | 53.7 | 102 | 1.88 | –
3 | CC(Nc1nsc2ccccc12)c1cccc2ccccc12 (stereo not drawn) [JMM080] | 9.33 | 105 | 11.09 | –
4 | COc1ccc(CNc2nsc3ccc(OC)cc23)cc1 [JMM097] | 398 | 229 | 0.57 | –
5 | CN(Cc1ccccc1C(F)(F)F)c1nsc2ccccc12 [JMM079] | 3.55 | 69.2 | 19.15 | –
6 | FC(F)(F)Sc1ccc(CNc2nsc3ccc(OCc4ccccc4)cc23)cc1 [JMM096] | 10.2 | 63.1 | 6.09 | –
7 | FC(F)(F)c1ccc(CN(Cc2ccccc2)c2nsc3ccccc23)cc1 [JMM072] | 13.5 | 155 | 11.52 | –
8 | CN(C)c1ccc(CNc2nsc3ccccc23)cc1 [JMM019] | 240 | 195 | 0.82 | –
9 | FC(F)(F)Sc1ccc(CNc2nsc3ccccc23)cc1 [JMM081] | 6.31 | 66.1 | 10.45 | –
10 | c1ccc(COc2ccc3snc(NCc4ccc(OCC5CC5)cc4)c3c2)cc1 [JMM135, 5-(Benzyloxy)-N-(4-(cyclopropylmethoxy)benzyl)benzo[d]isothiazol-3-amine] | 4.17 | 6.46 | 1.54 | –
11 | COc1ccc(C[C@H](N)C(=O)N[C@H]2[C@@H](O)[C@H](n3cnc4c(N(C)C)ncnc43)O[C@@H]2CO)cc1 [puromycin, reference compound] | – | – | – | decreases in fluorescence change
12 | COC(=O)c1ccc(CNc2nsc3ccccc23)cc1 [JMM024] | 158 | 437 | 2.76 | –
13 | c1ccc(COc2ccc3snc(NCc4ccc(OCC5CCCCC5)cc4)c3c2)cc1 [JMM127, 5-(Benzyloxy)-N-(4-(cyclohexylmethoxy)benzyl)benzo[d]isothiazol-3-amine] | 11.5 | 15.8 | 1.38 | –
14 | Cc1cc(C)c(COc2ccc(CNc3nsc4ccc(OCc5ccccc5)cc34)cc2)c(C)c1 [JMM123, 5-(Benzyloxy)-N-(4-((2,4,6-trimethylbenzyl)oxy)benzyl)benzo[d]isothiazol-3-amine] | – | 661 | – | –
15 | FC(F)(F)c1ccc(CNc2nsc3ccc(Cl)cc23)cc1 [JMM138, 5-Chloro-N-(4-(trifluoromethyl)benzyl)benzo[d]isothiazol-3-amine] | 22.9 | 25.1 | 1.10 | –
16 | Fc1ccccc1COc1ccc(CNc2nsc3ccc(OCc4ccccc4)cc23)cc1 [JMM118, 5-(Benzyloxy)-N-(4-((2-fluorobenzyl)oxy)benzyl)benzo[d]isothiazol-3-amine] | 25.7 | 15.5 | 0.60 | –
17 | N#Cc1ccc(CNc2nsc3ccccc23)cc1 [JMM044] | 63.1 | 417 | 6.68 | –
18 | c1ccc(CNc2nsc3ccccc23)nc1 [JMM058] | 105 | 741 | 7.17 | –
19 | c1ccc2c(NCc3ccc4c(c3)OCCO4)nsc2c1 [JMM017] | 288 | 204 | 0.71 | –
20 | FC(F)(F)Oc1ccccc1CNc1nsc2ccccc12 [JMM055] | 52.5 | 126 | 2.43 | –
21 | COc1ccc(Nc2nsc3ccccc23)cc1OC [JMM025] | 372 | 575 | 1.54 | –

Row | SMILES | EC50 (NPEPPS) [µM] | IC50 (HEK293T cells) [µM] | Therapeutic index (HEK293T cells) | fluorescence change (NPEPPS activity) (NPEPPS)
22 | CN(Cc1ccc(OCc2ccccc2)cc1)c1nsc2ccc(OCc3ccccc3)cc12 [JMM088] | 0.977 | 97.7 | 100.53 | –
23 | COc1ccc(CNc2nsc3ccc(OCc4ccccc4)cc23)cc1 [JMM099] | 46.8 | 34.7 | 0.74 | –
24 | COc1ccc(CNc2noc3ccccc23)cc1OC [JMM040] | 251 | 251 | 1.00 | –
25 | c1ccc(COc2ccc3snc(NCc4ccc(OCC5CCC5)cc4)c3c2)cc1 [JMM128, 5-(Benzyloxy)-N-(4-(cyclobutylmethoxy)benzyl)benzo[d]isothiazol-3-amine] | 4.47 | 9.55 | 2.12 | –
26 | FC(F)(F)c1cccc(CNc2nsc3ccccc23)c1 [JMM032] | 50.1 | 3090 | 62.09 | –
27 | c1ccc(COc2ccc3snc(NCc4ccc(N(Cc5ccccc5)Cc5ccccc5)cc4)c3c2)cc1 [JMM126, 5-(Benzyloxy)-N-(4-(dibenzylamino)benzyl)benzo[d]isothiazol-3-amine] | – | 1260 | – | –
28 | O=C(Nc1nsc2ccccc12)c1ccc2c(c1)OCCO2 [JMM006] | – | 282 | – | –
29 | COc1ccc(CNc2nccc3ccccc23)cc1OC [JMM034] | – | 186 | – | –
30 | c1ccc(COc2ccc3snc(NC4c5ccccc5-c5ccccc54)c3c2)cc1 [JMM089] | – | 3310 | – | –
31 | c1ccc(COc2ccc3snc(NCc4ccc(Cc5ccccc5)cc4)c3c2)cc1 [JMM120, N-(4-benzylbenzyl)-5-(benzyloxy)benzo[d]isothiazol-3-amine] | – | 1050 | – | –
32 | CS(=O)(=O)N(Cc1ccc(C(F)(F)F)cc1)c1nsc2ccccc12 [JMM071] | – | 10 | – | –
33 | O=C(Nc1nsc2ccccc12)c1ccc(C(F)(F)F)cc1 [JMM007] | – | 1740 | – | –
34 | c1ccc(COc2ccc3snc(NCc4ccc(OCc5ccccc5)c5ccccc45)c3c2)cc1 [JMM116, 5-(Benzyloxy)-N-((4-(benzyloxy)naphthalen-1-yl)methyl)benzo[d]isothiazol-3-amine] | – | 1000 | – | –
35 | c1ccc2c(CNc3nsc4ccccc34)nccc2c1 [JMM074] | – | 1820 | – | –
36 | CC(C)C[C@H](NC(=O)[C@@H](O)[C@H](N)Cc1ccccc1)C(=O)O [bestatin, reference compound] | – | – | – | decreases in fluorescence change
37 | O=C1c2ccccc2C(=O)N1c1nsc2cnccc12 [JMM085] | – | 3160 | – | –
38 | COc1ccc(CNc2ncnc3ccccc23)cc1OC [JMM036] | – | 135 | – | –
39 | COc1cccc(CNc2nsc3ccccc23)c1 [JMM010] | – | 97.7 | – | –
40 | c1ccc2c(CNc3nsc4ccccc34)c3ccccc3cc2c1 [JMM018] | – | 9550 | – | –
41 | c1ccc(COc2ccc3snc(NCc4ccc(COc5ccccc5)cc4)c3c2)cc1 [JMM124, 5-(Benzyloxy)-N-(4-(phenoxymethyl)benzyl)benzo[d]isothiazol-3-amine] | – | 724 | – | –
42 | c1ccc2c(c1)CN(c1nsc3ccccc13)C2 [JMM087] | – | 229 | – | –
